Assays:
Type in all cases: cell-based, Staphylococcus aureus
[1] = tested on: USA300 strain LAC biofilm; assay: USA300 biofilm dispersal from a titanium surface (flow cell, CLSM); conditions: AIP-I ~50 nM
Method: FIGS. 6A-B. USA300 biofilm dispersal from a titanium surface. Biofilms of LAC with plasmid pCM12 were grown for two days in the modified flow cell chamber (FIG. 2) that contains titanium as a substratum. AIP-I was added to the flow cell media at ˜50 nM final concentration, and biofilm integrity was monitored for another 20 hr. Each image depiction is a reconstruction of a z series of CLSM images, and each side of a grid square is 20 μm. (FIG. 6A) Wild-type LAC with pCM12. (FIG. 6B) LAC ΔAgr::Tet mutant with pCM12.
Biofilm Assays. For biofilms grown on glass, flow cell biofilm growth, confocal scanning laser microscopy (CSLM), and computer image analysis were performed as previously described (Boles and Horswill, 2008). To monitor biofilm growth, LAC was transformed with GFP-expressing plasmid pALC2084 (Bateman et al., 2001), and the growth medium was supplemented with 1 μg/ml Cam and 20 ng/ml anhydrotetracycline for plasmid maintenance and induction of GFP expression. […] For biofilm dispersal tests, AIP type I (AIP-I) was synthesized and quantified using an intein system (Malone et al., 2007), and biofilm dispersal tests were performed as previously described (Boles and Horswill, 2008). […] LAC biofilm integrity was monitored at 6 hr and 22 hr, and COMSTAT analysis was performed to quantify the biofilm properties. […]

USA300 strain LAC = conditions: 48 hr titanium biofilm, AIP ~50 nM for 24 hr, effluent cells tested with rifampicin and levofloxacin
Method: In parallel, biomass was detached (white triangles, dashed-line error bars) from the coupons with AIP-I addition and collected from flow cell effluents. The detached biomass was treated with identical rifampicin/levofloxacin concentrations and surviving CFU's determined.
Antibiotic susceptibility. […] To determine antibiotic resistance of dispersed biofilms, AIP was added (˜50 nM) to the media reservoir after 48 hr growth, and the biofilm effluent was collected on ice for 24 hr. Cell concentration was adjusted to the equivalent of one coupon of biomass, or ˜1×10^8 CFU. Cells were treated as described above with the exception that cells were pelleted by centrifugation at 13,000 RPM and then resuspended in 1 mL PBS before sonication.
To test antibiotic susceptibility of dispersed cells, LAC biofilms were grown for 48 hr on titanium, exposed to AIP (˜50 nM) for 24 hr, and detached cells were collected from the effluent.

[2] = tested on: USA300 strain LAC biofilm; assay: USA300 biofilm dispersal from a glass surface (flow cell, CLSM); conditions: AIP-I ~50 nM
Method: FIGS. 1A-B. USA300 biofilm dispersal from a glass surface. USA300 strain LAC with plasmid pALC2084 was inoculated into a once-through flow cell with a glass substratum and incubated for two days. AIP-I (˜50 nM) was added to the flow cell media and biofilm integrity was monitored for 20 hr. For each image depiction, a z series of images was obtained with CLSM and reconstructed with Volocity software, and each side of a grid square is 20 μm in the image reconstruction. (FIG. 1A) Wild-type LAC with pALC2084. (FIG. 1B) LAC ΔAgr:Tet mutant with pALC2084.
Biofilm Assays. […] For biofilm dispersal tests, AIP type I (AIP-I) was synthesized and quantified using an intein system (Malone et al., 2007), and biofilm dispersal tests were performed as previously described (Boles and Horswill, 2008). […] LAC biofilm integrity was monitored at 6 hr and 22 hr, and COMSTAT analysis was performed to quantify the biofilm properties.
USA300 has a functional biofilm dispersal pathway. […] Biofilm integrity was monitored using confocal laser scanning microscopy (CLSM), and as anticipated, the LAC biofilm appeared as a confluent layer ˜20 μm thick (FIG. 1A). […] In scanning the glass substratum, remaining live cells could not be detected, indicating the biomass completely dispersed from the surface.

[3] = LAC ΔAgr::Tet mutant (Agr inactivated), 20 hr

Q: What does the source list for “YSTCDFIM (thiolactone bridge; Synechocystis PCC6803) [AIP-I, made with an intein system]”?
A: biofilm response to AIP-I [1, 3]: did not respond to AIP-I treatment; biofilm dispersal (biomass) ([1]; wild-type LAC, two day biofilm, 20 hr post addition): complete dispersal of the biomass; antibiotic susceptibility of cells after AIP-mediated dispersal (USA300 strain LAC): significantly more antibiotic susceptible; biofilm integrity after signal addition [2, 3]: no effect on the biofilm integrity; biofilm integrity (biomass) after signal addition ([2]; wild-type LAC, 48 hr biofilm, 20 hr after addition): complete loss of biomass
